Conditions: Liquid, Vibrating tube method

CCCC(=O)OCC(COC(=O)CCC)(COC(=O)CCC)COC(=O)CCC [pentaerythritol tetrabutyrate]
Conditions | mass density [kg/m3]
303.16 K, 34848 kPa | 1063.1
303.17 K, 281.6 kPa | 1042.3
303.17 K, 295.5 kPa | 1042.4
303.17 K, 308.6 kPa | 1042.3
303.17 K, 338.6 kPa | 1042.4
303.17 K, 356.5 kPa | 1042.4
303.17 K, 372.3 kPa | 1042.3
303.17 K, 389.7 kPa | 1042.4
303.17 K, 409.5 kPa | 1042.4
303.17 K, 424.5 kPa | 1042.4
303.17 K, 439.6 kPa | 1042.5
303.17 K, 457.1 kPa | 1042.5
303.17 K, 488.2 kPa | 1042.3
303.17 K, 509.3 kPa | 1042.5
303.17 K, 526.8 kPa | 1042.6
303.17 K, 1268.4 kPa | 1043
303.17 K, 1312 kPa | 1043
303.17 K, 1333.8 kPa | 1043
303.17 K, 2851.4 kPa | 1044.1
303.17 K, 2920.2 kPa | 1044.1
303.17 K, 4808.4 kPa | 1045.3
303.17 K, 4819 kPa | 1045.4
303.17 K, 4825.7 kPa | 1045.3
303.17 K, 4829.2 kPa | 1045.3
303.17 K, 4830.8 kPa | 1045.2
303.17 K, 4832.3 kPa | 1045.3
303.17 K, 4834.4 kPa | 1045.4
303.17 K, 4836 kPa | 1045.4
303.17 K, 4837.7 kPa | 1045.4
303.17 K, 4839.2 kPa | 1045.4
303.17 K, 4840.6 kPa | 1045.4
303.17 K, 4842.7 kPa | 1045.3
303.17 K, 6518.3 kPa | 1046.5
303.17 K, 6547.8 kPa | 1046.4
303.17 K, 6572.5 kPa | 1046.5
303.17 K, 7027.7 kPa | 1046.8
303.17 K, 7057 kPa | 1046.7
303.17 K, 7087.6 kPa | 1046.8
303.17 K, 7117.6 kPa | 1046.7
303.17 K, 7147.4 kPa | 1046.8
303.17 K, 7177.7 kPa | 1046.9
303.17 K, 7213.5 kPa | 1046.9
303.17 K, 7243.4 kPa | 1046.9
303.17 K, 8394.2 kPa | 1047.6
303.17 K, 8419.6 kPa | 1047.7
303.17 K, 8440.8 kPa | 1047.7
303.17 K, 8462 kPa | 1047.7
303.17 K, 8485.6 kPa | 1047.7
303.17 K, 9218.9 kPa | 1048
303.17 K, 34670 kPa | 1063
303.17 K, 34730 kPa | 1063.1
303.17 K, 34780 kPa | 1063.1
303.17 K, 34833 kPa | 1063.2
323.14 K, 3021.5 kPa | 1026.7
323.14 K, 3045.8 kPa | 1026.8
323.14 K, 3074.9 kPa | 1026.9
323.14 K, 3099.4 kPa | 1026.9
323.14 K, 3124.1 kPa | 1027
323.14 K, 3153.6 kPa | 1026.9
323.14 K, 3179.3 kPa | 1026.9
323.14 K, 3204.7 kPa | 1027
323.14 K, 3230.2 kPa | 1027
323.14 K, 3262.8 kPa | 1027.1
323.14 K, 3289.7 kPa | 1027
323.14 K, 3316.7 kPa | 1027.2
323.14 K, 3376.7 kPa | 1027.2
323.14 K, 3404.8 kPa | 1027.3
323.14 K, 3432.9 kPa | 1027.2
323.14 K, 3526.4 kPa | 1027.4
323.14 K, 3592.6 kPa | 1027.3
323.14 K, 3622.8 kPa | 1027.3
323.14 K, 3654 kPa | 1027.4
323.14 K, 3691.9 kPa | 1027.4
323.14 K, 3723.3 kPa | 1027.5
323.14 K, 3755.5 kPa | 1027.4
323.14 K, 3794.3 kPa | 1027.5
323.14 K, 3827.2 kPa | 1027.5
323.14 K, 3860.3 kPa | 1027.6
323.14 K, 3900.3 kPa | 1027.7
323.14 K, 3935 kPa | 1027.6
323.14 K, 3969.1 kPa | 1027.6
323.14 K, 4004.6 kPa | 1027.7
323.14 K, 4047.6 kPa | 1027.8
323.14 K, 4083.9 kPa | 1027.7
323.14 K, 4121.4 kPa | 1027.7
323.14 K, 4159.5 kPa | 1027.8
323.14 K, 4204 kPa | 1027.8
323.14 K, 4241.5 kPa | 1027.9
323.14 K, 4280.5 kPa | 1028
323.14 K, 4319.3 kPa | 1027.9
323.14 K, 4366.4 kPa | 1028
323.14 K, 4406.1 kPa | 1028
323.14 K, 4447.6 kPa | 1028.1
323.14 K, 4495.9 kPa | 1028
323.14 K, 4536.6 kPa | 1028.2
323.14 K, 4587.3 kPa | 1028.3
323.14 K, 4629.9 kPa | 1028.2
323.14 K, 4673.5 kPa | 1028.3
323.14 K, 4708.8 kPa | 1028.3
323.14 K, 4783.8 kPa | 1028.3
323.14 K, 4863.6 kPa | 1028.4
323.14 K, 4981.8 kPa | 1028.4
323.14 K, 5097.9 kPa | 1028.7
323.14 K, 5295.3 kPa | 1028.8
323.14 K, 5295.4 kPa | 1028.7
323.14 K, 5295.6 kPa | 1028.8
323.14 K, 5487.4 kPa | 1028.9
323.14 K, 5504.7 kPa | 1029
323.14 K, 5543.7 kPa | 1028.9
323.14 K, 12307 kPa | 1033.8
323.14 K, 12337 kPa | 1033.7
323.14 K, 14077 kPa | 1034.9
323.14 K, 14107 kPa | 1034.9
323.14 K, 14132 kPa | 1034.8
323.14 K, 14159 kPa | 1034.9
323.14 K, 14184 kPa | 1035
323.14 K, 14777 kPa | 1035.3
323.14 K, 16272 kPa | 1036.3
323.14 K, 16347 kPa | 1036.3
323.14 K, 16415 kPa | 1036.4
323.14 K, 16456 kPa | 1036.4
323.14 K, 16491 kPa | 1036.5
323.14 K, 16525 kPa | 1036.4
323.14 K, 16567 kPa | 1036.5
323.14 K, 16603 kPa | 1036.5
323.14 K, 16638 kPa | 1036.5
323.14 K, 16681 kPa | 1036.6
323.14 K, 16716 kPa | 1036.5
323.14 K, 16912 kPa | 1036.7
323.14 K, 16948 kPa | 1036.8
323.14 K, 16993 kPa | 1036.8
323.14 K, 17030 kPa | 1036.8
323.14 K, 17069 kPa | 1036.8
323.14 K, 17108 kPa | 1036.7
323.14 K, 17153 kPa | 1036.9
323.14 K, 17191 kPa | 1037
323.14 K, 17229 kPa | 1036.9
323.14 K, 17267 kPa | 1036.9
323.14 K, 17315 kPa | 1036.9
323.14 K, 17354 kPa | 1036.9
323.14 K, 17394 kPa | 1037
323.14 K, 17441 kPa | 1037.1
323.14 K, 17476 kPa | 1037
323.14 K, 17519 kPa | 1037.1
323.14 K, 17554 kPa | 1037.2
323.14 K, 17593 kPa | 1037
323.14 K, 17628 kPa | 1037.1
